Assay results from patent US8343964B2, “Indolic derivatives, their preparation processes and their uses in particular as antibacterials” (Universite Joseph Fourier, priority 2007, dated 2013).
≈ marks a conversion by molar mass, not a printed value. Like-named read-outs stand apart in the source and are kept apart here.

Assays:
[1] = tested on: Staphylococcus aureus (ATCC 25923, sensitive Gram-positive strain); test: Determination of the antibacterial activity: MIC in liquid Mueller-Hinton medium (intrinsic antibacterial activity); assay type: cell-based; details: read-out: MIC / Antibacterial Activity (AA)
Experimental: (§1) The two strains used are Staphylococcus aureus (ATCC 25923, sensitive Gram-positive strain) denoted S, and S. aureus ITS-1199 (without efflux), as well as its derivative S. aureus ITS-1199B (Kaatz, G. W., Seo, S. M., Antimicrob. Agents Chemother., 1995, 39, 2650-2655) having a resistance to the fluoroquinolones due to the overexpression of the efflux pump NorA and denoted R NorA. The bacteria are cultured at 37° C. in Mueller-Hinton (MH, Bio Rad) or Luria-Bertani (LB, Difco) Medium.
The experiments described hereafter are carried out following the recommendations of the Comité de l'Antibiogramme de la Société Française de Microbiologic (http://www.sfm.asso.fr/nouv/general.php See also Courvalin, P., Goldstein, F., Philippon, A., Sirot J. L'antibiogramme, 1985, M.P.C.-Videom editor). The antibacterial activity of the molecules was determined in liquid medium using a Biomek 2000 robot (Beckman) and micro-titration plates. The final volume in each well is 200 μl. A maximum volume of 5 μl of a solution of the molecule in DMSO is added to each well containing 10^6 CFU/ml (Colony Forming Units) of bacteria in MH medium. The final concentration of the molecule to be tested must be 100 or 128 μg/ml. […] Ampicillin is used as a positive control and the same volume of DMSO as that used to introduce the molecule (generally 2 to 5 μl) as a negative control.
The experiments are repeated three times.

[2] = In vitro cytotoxicity on HCT116 cells; assay type: cell-based; details: human, HCT116 cells (human colon tumour); concentration of 10^−5 M; read-out: Average cytotoxicity (% inhibition), HCT116 cells
Experimental: (§2) The in vitro cytotoxicity results, measured at a concentration of 10^−5 M, are described below. The cytotoxicity was measured on 5 cell lines—KB (human mouth carcinoma), MCF7 (breast carcinoma) and MCF7R (resistant strain), Vero (monkey kidney) and HCT116 (human colon tumour).

[3] = tested on: KB (human mouth carcinoma); test: In vitro cytotoxicity on KB cells; assay type: cell-based; details: concentration of 10^−5 M
Experimental: as §2

[4] = In vitro cytotoxicity on Vero cells; assay type: cell-based; details: monkey, Vero cells (monkey kidney); concentration of 10^−5 M; read-out: Average cytotoxicity (% inhibition), Vero cells
Experimental: as §2

[5] = tested on: S. aureus ITS-1199B (overexpression of the efflux pump NorA); assay type: cell-based, Staphylococcus aureus; details: resistant strain R NorA; for MIC (μg/ml) of compound in the presence of ciprofloxacin at 4 μg/ml (c/4): ciprofloxacin 4 μg/ml (c/4); for MIC (μg/ml) of compound in the presence of ciprofloxacin at 8 μg/ml (c/2): ciprofloxacin 8 μg/ml (c/2)
Experimental: as §1
The experiences are carried out as above, but using the resistant strain, and looking at the effect of the mixture of the molecule to be tested and the antibiotic to which the bacterium is resistant. Thus, the method of a series of dilutions in Mueller-Hinton medium is used, also starting from a molecule concentration of 100 or 128 μg/ml.

in vitro = assay type: cell-based; details: human
Experimental: as §2

[6] = In vitro cytotoxicity on MCF7 cells; assay type: cell-based; details: human, MCF7 cells (breast carcinoma); concentration of 10^−5 M; read-out: Average cytotoxicity (% inhibition), MCF7 cells
Experimental: as §2

[7] = ATCC25923, compound alone, lowest concentration allowing no growth after 18 hours at 37° C., 10^6 CFU/ml

Compound	MIC ([1]; ATCC25923, 18 h) [µg/mL]	Average cytotoxicity (% inhibition), KB cells [3] [%]	cytotoxicity [4] [%]	MIC (μg/ml) of compound in the presence of ciprofloxacin at 4 μg/ml (c/4) [5]	also measured
O=[N+]([O-])c1ccc(C(c2c[nH]c3ccccc23)N(O)Cc2ccccc2)cc1 (centres unmarked) [(42)]	50 (≈ 134 µM)				
CC(c1c[nH]c2ccc(Br)cc12)/[N+]([O-])=C\c1ccccc1 (centres unmarked) [(43)]	100 (≈ 291 µM)				
CC(C)(C)OC(=O)NCC(NO)c1c[nH]c2ccccc12 (centres unmarked) [(46), 1-N-(hydroxy)amino-2-[N′-(tert-butoxycarbonyl)amino]-1-(indol-3′-yl)ethane]		31	0		cytotoxicity [2]: 39%
CC(c1c[nH]c2ccc(Br)cc12)N(O)Cc1ccccc1 (centres unmarked) [Compound (1)]		50	36		cytotoxicity [2]: 28%; MIC [1, 7]: 25 µg/mL (≈ 72.4 µM)
CC(c1c[nH]c2cc(Br)ccc12)N(O)Cc1ccccc1 (centres unmarked) [Compound (2)]	100 (≈ 290 µM)				
COc1ccc(CN(O)C(C)c2c[nH]c3ccc(Br)cc23)cc1 (centres unmarked) [Compound (3)]	100 (≈ 266 µM)				
CC(C)(C)OC(=O)NCC(c1c[nH]c2ccc(Br)cc12)N(O)Cc1ccccc1 (centres unmarked) [Compound (4)]	25 (≈ 54.3 µM)				
CC(C)(C)OC(=O)NCC(c1c[nH]c2cc(Br)ccc12)N(O)Cc1ccccc1 (centres unmarked) [Compound (5)]				2 µg/mL	MIC [1, 7]: 6 µg/mL (≈ 13 µM)
CC(C)(C)OC(=O)NCC(c1c[nH]c2ccccc12)N(O)Cc1ccccc1 (centres unmarked) [Compound (6)]		33.7	27	4 µg/mL	cytotoxicity [2]: 29%; MIC (μg/ml) of compound in the presence of ciprofloxacin at 8 μg/ml (c/2) [5]: 2 µg/mL; cytotoxicity (in vitro): 16%; cytotoxicity [6]: 13.1%
COc1ccc2[nH]cc(C(CNC(=O)OC(C)(C)C)N(O)Cc3ccccc3)c2c1 (centres unmarked) [Compound (7)]		15.6	8		cytotoxicity [2]: 10%; cytotoxicity (in vitro): 10.1%; cytotoxicity [6]: 9.7%
COc1ccc(CN(O)C(CNC(=O)OC(C)(C)C)c2c[nH]c3ccc(Br)cc23)c(OC)c1 (centres unmarked) [Compound (8)]				8 µg/mL	MIC (μg/ml) of compound in the presence of ciprofloxacin at 8 μg/ml (c/2) [5]: 8 µg/mL
CC(C)(C)OC(=O)NCC(c1c[nH]c2ccccc12)N(O)C(=O)OC(C)(C)C (centres unmarked) [Compound (11)]		14	15		cytotoxicity [2]: 22%
CC(C)(C)OC(=O)NCC(c1c[nH]c2ccc(Cl)cc12)N(O)C(=O)OC(C)(C)C (centres unmarked) [Compound (12)]				4 µg/mL	MIC [1, 7]: 12.5 µg/mL (≈ 29.3 µM)
CC(C)(C)OC(=O)NCC(c1c[nH]c2ccc(Br)cc12)N(O)C(=O)OC(C)(C)C (centres unmarked) [Compound (13), 1-[N-(tert-butoxycarbonyl)-N-(hydroxy)amino]-2-[N-(tert-butoxycarbonyl)]-1-(5′-bromo-3′-indolyl)ethane]	50 (≈ 106 µM)				
CC(NCc1ccccc1)c1c[nH]c2ccc(Br)cc12 (centres unmarked) [Compound (15)]	25 (≈ 75.9 µM)				
CC(C)(C)OC(=O)NCC(c1c[nH]c2ccc(Br)cc12)/[N+]([O-])=C/c1ccccc1 (centres unmarked) [Compound (20 bis), N-(benzylidene)-2-[N′-(tert-butoxycarbonyl)amino]-1-(5′-bromo-3′-indolyl) ethanamine N-oxide]		38.3		c/2 = 1 c/4 = 1 μg/ml	MIC (μg/ml) of compound in the presence of ciprofloxacin at 8 μg/ml (c/2) [5]: c/2 = 1 c/4 = 1 μg/ml; cytotoxicity (in vitro): 38.1%; cytotoxicity [6]: 23.3%
CC(C)CC(c1c[nH]c2ccccc12)N(O)C(=O)OC(C)(C)C (centres unmarked) [Compound (47)]				32 µg/mL	MIC [1, 7]: 64 µg/mL (≈ 201 µM)
O=C(CONC(=O)OCC1c2ccccc2-c2ccccc21)NC(COCc1ccccc1)c1c[nH]c2ccccc12 (centres unmarked) [Compound (48)]				2 µg/mL	
COc1ccc2c(C(CNC(=O)OC(C)(C)C)N(O)Cc3ccccc3)c[nH]c2c1 (centres unmarked) [Compound (50), 1-[N-benzyl-N-(hydroxy)amino]-2-[N′-(tert-butoxycarbonyl)amino]-1-(6′-methoxyindol-3′-yl)ethane]			42		
